{"source": "patent US20170150719A1", "about": "“FUNGICIDAL PYRAZOLES AND THEIR MIXTURES” (E I DU PONT DE NEMOURS AND COMPANY, priority 2010, published 2017)", "key": {"[1]": {"system": "Blumeria graminis f. sp. tritici", "test": "Test K (K1-K5): wheat powdery mildew, Compound 81 alone and in mixtures, observed and Colby expected control", "assay_type": "in vivo", "settings": "for Test K4 Obsd, disease control rating / Test K5 Obsd, disease control rating: wheat powdery mildew"}, "Alternaria solani": {"system": "Alternaria solani", "test": "Test B: tomato early blight, preventive spray on tomato seedlings, visual disease rating", "settings": "Alternaria solani, in Solanum lycopersicum, read-out: Test B rating (disease control)"}, "[2]": {"system": "Puccinia recondita f. sp. tritici", "test": "Test H: wheat leaf rust, preventive spray on wheat seedlings, visual disease rating", "settings": "read-out: Test H rating (disease control), wheat leaf rust, sprayed the day before inoculation; 100 = 100% disease control, 0 = no disease control", "method": "General protocol for preparing test suspensions for Tests A-I: the test compounds were first dissolved in acetone in an amount equal to 3% of the final volume and then suspended at the desired concentration (in ppm) in acetone and purified water (50/50 mix by volume) containing 250 ppm of the surfactant Trem® 014 (polyhydric alcohol esters). The resulting test suspensions were then used in Tests A-I. Each test was conducted in triplicate, and the results were averaged. Spraying a 200 ppm test suspension to the point of run-off on the test plants was the equivalent of a rate of about 800 g/ha. Unless otherwise indicated, the rating values indicate a 200 ppm test suspension was used. (An asterisk “*” next to the rating value indicates a 40 ppm test suspension was used.)\nThe test suspension was sprayed to the point of run-off on wheat seedlings. The following day the seedlings were inoculated with a spore suspension of Puccinia recondita f. sp. tritici (the causal agent of wheat leaf rust) and incubated in a saturated atmosphere at 20° C. for 24 h, and then moved to a growth chamber at 20° C. for 6 days, after which time visual disease ratings were made."}, "Septoria nodorum": {"system": "Septoria nodorum", "test": "Test E: Septoria glume blotch, preventive spray on wheat seedlings, visual disease rating", "settings": "Parastagonospora nodorum, in Triticum aestivum, read-out: Test E rating (disease control), Septoria glume blotch; 100 = 100% disease control, 0 = no disease control relative to the controls"}, "Septoria tritici [3]": {"system": "Septoria tritici", "test": "Test M (M1-M5): wheat leaf blotch, Compound 81 alone and in mixtures, observed and Colby expected control", "assay_type": "in vivo"}, "Septoria tritici [4]": {"system": "Septoria tritici", "test": "Tests N1 and N2: growth inhibition of Septoria tritici on solid medium in 96-well plates, absorbance at 600 nm, observed and Colby expected", "assay_type": "cell-based", "settings": "Zymoseptoria tritici; for inhibition at 0.00032 µM: Compound 81 alone 0.00032 μM; for inhibition at 0.0016 µM: Compound 81 alone 0.0016 μM; for inhibition at 0.008 µM: Compound 81 alone 0.008 μM; for inhibition at 0.04 µM: Compound 81 alone 0.04 μM; for inhibition at 0.2 µM: Compound 81 alone 0.2 μM", "excerpt": "Tests N1 and N2 involved evaluation of mixtures of Compound 81 with 2-[(3-bromo-8-methyl-6-quinolinyl)oxy]-N-(1,1-dimethyl-2-propyn-1-yl)-2-(methylthio)acetamide (Compound A1) and 2-[(3-bromo-6-quinolinyl)oxy]-N-(1,1-dimethylethyl)butanamide (Compound A2), respectively, for inhibiting the growth of Septoria tritici (the causal agent of wheat leaf blotch). The general protocol for preparing test compositions was as follows. Compound 81 (Tests N1 and N2), Compound A1 (Test N1) and Compound A2 (Test N2) were obtained as unformulated, technical-grade materials. Unformulated test compounds were first dissolved in DMSO at the appropriate concentration to provide the desired concentration (in μM) after mixing with the fungal growth medium in the wells of 96-well plates containing 200 μL fungal growth medium per well. The ranges of compound concentrations were chosen to span a range of inhibitory activity from 0 to near 100% to identify any synergistic action when Septoria tritici was treated with compounds added in combination. The DMSO solutions of the test compounds were added to the wells prior to addition of the fungal growth medium.\nThe fungal growth solid medium was prepared by forming an aqueous mixture containing dipotassium hydrogen phosphate (3.0 g/L), potassium dihydrogen phosphate (4.0 g/L), sodium chloride (0.5 g/L), ammonium chloride (1.0 g/L), magnesium sulfate heptahydrate ([…]) and calcium chloride dihydrate (0.01 g/L), also containing 1 mL/L of a trace element solution (manganese sulfate hydrate (0.1 mg/mL), zinc sulfate heptahydrate (0.2 mg/mL), copper(II) sulfate pentahydrate (0.2 mg/mL), iron(II) sulfate heptahydrate (0.2 mg/mL), sodium molybdate dihydrate (0.1 mg/mL), cobalt(II) sulfate heptahydrate (0.06 mg/mL), boric acid (0.08 mg/mL)), and supplemented with 50 μL/L of a biotin stock solution (0.1 mg/mL). The pH was adjusted to 6.8 with aqueous 1 M sodium carbonate solution. The mixture was further supplemented with 1 g/L of yeast extract, and GELRITE gellan gum (Kelco) (4 g/L) was added. Sufficient water was added to bring the volume to 90% of final volume (e.g., 900 mL volume for preparation of 1 L of fungal growth medium). The mixture was autoclaved. On cooling to 60° C., 100 mL/L of aqueous dextrose solution (10 g/L), 500 μL/L of aqueous ampicillin solution (100 mg/mL) and 500 μL/L of rifampicin solution (10 mg/mL in DMSO) were added to provide the final volume of fungal growth medium, which was then dispensed while still warm using a microliter pipette to the wells of the 96-well plates. The dispensed fungal growth medium in each well was agitated using the tip of the dispensing pipette to mix it with the DMSO solution containing the test compounds.\nAfter the fungal growth medium in the wells had cooled to room temperature and solidified, the top surface of the growth medium in each well was inoculated with 20 μL of a suspension of fungus containing 8×10^4 cells. Following a 2 h period of drying in a sterile hood, plates were placed in a dark incubator at 25° C. for 5 d.\nFungal growth was assessed on a plate reader set to measure absorbance of 600 nm light. The percent growth inhibition observed (Obsd.) in Tests N1 and N2, as well as the percent growth inhibition expected (Exp.) from calculation using the Colby equation, are listed in Tables L and M, respectively."}, "[5]": {"system": "Puccinia recondita f. sp. tritici", "test": "Test G: wheat leaf rust, spray after inoculation (curative) on wheat seedlings, visual disease rating", "assay_type": "in vivo", "settings": "sprayed after inoculation, 100 = 100% disease control, 0 = no disease control", "excerpt": "(§1) A hyphen (-) indicates no test results."}, "Septoria tritici [6]": {"system": "Septoria tritici", "test": "Test F: wheat leaf blotch, preventive spray on wheat seedlings, visual disease rating", "assay_type": "in vivo", "settings": "Zymoseptoria tritici, 100 = 100% disease control, 0 = no disease control relative to the controls", "excerpt": "as §1"}, "[7]": {"settings": "read-out: % inhibition Obsd. (Test N1)"}, "[8]": {"settings": "read-out: % inhibition Obsd. (Test N2)"}}, "note": "Where two headings read alike, the source gives them in different places."}
{"smiles": "Cc1nn(C)c(Nc2c(F)cc(Cl)cc2F)c1-c1ccc(F)cc1Cl", "note": "[Compound 81, N-(4-chloro-2,6-difluorophenyl)-4-(2-chloro-4-fluorophenyl)-1,3-dimethyl-1H-pyrazole-5-amine]", "values": [{"measurement": "Test K1 Obsd", "setting": "[1]; Compound 81 1 ppm alone", "result": 0, "unit": "%"}, {"measurement": "Test K2 Obsd", "setting": "[1]; Compound 81 1 ppm alone", "result": 91, "unit": "%"}, {"measurement": "Test K3 Obsd", "setting": "[1]; Compound 81 1 ppm alone", "result": 0, "unit": "%"}, {"measurement": "Test K1 Obsd", "setting": "[1]; Compound 81 2 ppm alone", "result": 87, "unit": "%"}, {"measurement": "Test K2 Obsd", "setting": "[1]; Compound 81 2 ppm alone", "result": 91, "unit": "%"}, {"measurement": "Test K3 Obsd", "setting": "[1]; Compound 81 2 ppm alone", "result": 0, "unit": "%"}, {"measurement": "Test K1 Obsd", "setting": "[1]; Compound 81 5 ppm alone", "result": 99, "unit": "%"}, {"measurement": "Test K2 Obsd", "setting": "[1]; Compound 81 5 ppm alone", "result": 91, "unit": "%"}, {"measurement": "Test K3 Obsd", "setting": "[1]; Compound 81 5 ppm alone", "result": 90, "unit": "%"}, {"measurement": "Test K1 Obsd", "setting": "[1]; Compound 81 10 ppm alone", "result": 100, "unit": "%"}, {"measurement": "Test K2 Obsd", "setting": "[1]; Compound 81 10 ppm alone", "result": 100, "unit": "%"}, {"measurement": "Test K3 Obsd", "setting": "[1]; Compound 81 10 ppm alone", "result": 99, "unit": "%"}, {"measurement": "Test K4 Obsd, disease control rating", "setting": "[1]; Compound 81 1 ppm alone", "result": 0, "unit": "%"}, {"measurement": "Test K5 Obsd, disease control rating", "setting": "[1]; Compound 81 1 ppm alone", "result": 0, "unit": "%"}, {"measurement": "Test K4 Obsd, disease control rating", "setting": "[1]; Compound 81 2 ppm alone", "result": 0, "unit": "%"}, {"measurement": "Test K5 Obsd, disease control rating", "setting": "[1]; Compound 81 2 ppm alone", "result": 0, "unit": "%"}, {"measurement": "Test K4 Obsd, disease control rating", "setting": "[1]; Compound 81 5 ppm alone", "result": 0, "unit": "%"}, {"measurement": "Test K5 Obsd, disease control rating", "setting": "[1]; Compound 81 5 ppm alone", "result": 0, "unit": "%"}, {"measurement": "Test K5 Obsd, disease control rating", "setting": "[1]; Compound 81 10 ppm alone", "result": 100, "unit": "%"}, {"measurement": "pest or weed control at 200 µg/mL", "setting": "Alternaria solani", "result": 99, "unit": "%"}, {"measurement": "pest or weed control at 200 µg/mL", "setting": "[2]", "result": 100, "unit": "%"}, {"measurement": "pest or weed control at 200 µg/mL", "setting": "Septoria nodorum", "result": 90, "unit": "%"}, {"measurement": "Test M1 Obsd, disease control rating", "setting": "Septoria tritici [3]; Compound 81 0.01 ppm alone", "result": 0, "unit": "%"}, {"measurement": "Test M2 Obsd, disease control rating", "setting": "Septoria tritici [3]; Compound 81 0.01 ppm alone", "result": 0, "unit": "%"}, {"measurement": "Test M1 Obsd, disease control rating", "setting": "Septoria tritici [3]; Compound 81 0.1 ppm alone", "result": 0, "unit": "%"}, {"measurement": "Test M2 Obsd, disease control rating", "setting": "Septoria tritici [3]; Compound 81 0.1 ppm alone", "result": 0, "unit": "%"}, {"measurement": "Test M1 Obsd, disease control rating", "setting": "Septoria tritici [3]; Compound 81 1 ppm alone", "result": 86, "unit": "%"}, {"measurement": "Test M2 Obsd, disease control rating", "setting": "Septoria tritici [3]; Compound 81 1 ppm alone", "result": 95, "unit": "%"}, {"measurement": "Test M1 Obsd, disease control rating", "setting": "Septoria tritici [3]; Compound 81 10 ppm alone", "result": 100, "unit": "%"}, {"measurement": "Test M2 Obsd, disease control rating", "setting": "Septoria tritici [3]; Compound 81 10 ppm alone", "result": 100, "unit": "%"}, {"measurement": "Test M3 Obsd disease control rating", "setting": "Septoria tritici [3]; Compound 81 alone 0.01 ppm", "result": 0, "unit": "%"}, {"measurement": "Test M4 Obsd disease control rating", "setting": "Septoria tritici [3]; Compound 81 alone 0.01 ppm", "result": 0, "unit": "%"}, {"measurement": "Test M5 Obsd disease control rating", "setting": "Septoria tritici [3]; Compound 81 alone 0.01 ppm", "result": 0, "unit": "%"}, {"measurement": "Test M3 Obsd disease control rating", "setting": "Septoria tritici [3]; Compound 81 alone 0.1 ppm", "result": 0, "unit": "%"}, {"measurement": "Test M4 Obsd disease control rating", "setting": "Septoria tritici [3]; Compound 81 alone 0.1 ppm", "result": 23, "unit": "%"}, {"measurement": "Test M5 Obsd disease control rating", "setting": "Septoria tritici [3]; Compound 81 alone 0.1 ppm", "result": 3, "unit": "%"}, {"measurement": "Test M3 Obsd disease control rating", "setting": "Septoria tritici [3]; Compound 81 alone 1 ppm", "result": 52, "unit": "%"}, {"measurement": "Test M4 Obsd disease control rating", "setting": "Septoria tritici [3]; Compound 81 alone 1 ppm", "result": 66, "unit": "%"}, {"measurement": "Test M5 Obsd disease control rating", "setting": "Septoria tritici [3]; Compound 81 alone 1 ppm", "result": 90, "unit": "%"}, {"measurement": "Test M3 Obsd disease control rating", "setting": "Septoria tritici [3]; Compound 81 alone 10 ppm", "result": 100, "unit": "%"}, {"measurement": "Test M4 Obsd disease control rating", "setting": "Septoria tritici [3]; Compound 81 alone 10 ppm", "result": 100, "unit": "%"}, {"measurement": "Test M5 Obsd disease control rating", "setting": "Septoria tritici [3]; Compound 81 alone 10 ppm", "result": 100, "unit": "%"}, {"measurement": "inhibition at 0.00032 µM", "setting": "Septoria tritici [4]; [7]", "result": 9, "unit": "%"}, {"measurement": "inhibition at 0.00032 µM", "setting": "Septoria tritici [4]; [8]", "result": 0, "unit": "%"}, {"measurement": "inhibition at 0.0016 µM", "setting": "Septoria tritici [4]; [7]", "result": 5, "unit": "%"}, {"measurement": "inhibition at 0.0016 µM", "setting": "Septoria tritici [4]; [8]", "result": 0, "unit": "%"}, {"measurement": "inhibition at 0.008 µM", "setting": "Septoria tritici [4]; [7]", "result": 10, "unit": "%"}, {"measurement": "inhibition at 0.008 µM", "setting": "Septoria tritici [4]; [8]", "result": 29, "unit": "%"}, {"measurement": "inhibition at 0.04 µM", "setting": "Septoria tritici [4]; [7]", "result": 93.5, "unit": "%"}, {"measurement": "inhibition at 0.04 µM", "setting": "Septoria tritici [4]; [8]", "result": 93.5, "unit": "%"}, {"measurement": "inhibition at 0.2 µM", "setting": "Septoria tritici [4]; [7]", "result": 98, "unit": "%"}, {"measurement": "inhibition at 0.2 µM", "setting": "Septoria tritici [4]; [8]", "result": 96, "unit": "%"}, {"measurement": "pest or weed control at 200 µg/mL", "setting": "[5]", "result": 99, "unit": "%"}, {"measurement": "pest or weed control at 200 µg/mL", "setting": "Septoria tritici [6]", "result": 100, "unit": "%"}]}
